Assays:
EGFR^del19+T790M+C797S = test: EGFR protein degradation test (Western blot) in Ba/F3 cells expressing mutant EGFR del19+T790M+C797S (DTC); type: cell-based; conditions: compounds at 0.1 μM and 1 μM, 24 hours, Western blot with EGFR antibody
Experimental: (§1) The ability of the compounds of the present invention to degrade the mutant EGFR protein was confirmed in Ba/F3 cells expressing normal EGFR, mutant EGFR^del19+T790M+C797S or mutant EGFR^L858R+T790M+C797S. A Western blot test using the EGFR antibody was performed.
(§2) Specifically, Ba/F3 cells expressing EGFR were cultured in RPMI 1640 (Gibco, NY, USA) containing 10% fetal bovine serum (FBS, Gibco, NY, USA). Cells expressing normal EGFR, mutant EGFR^del19+T790M+C797S or mutant EGFR^L858R+T790M+C797S were treated with the compounds of the present invention at concentrations of 0.1 μM and 1 μM, respectively, for 24 hours. After that, it was washed twice with phosphate buffered saline (PBS) and SDS-PAGE was performed with 30 μg of cell lysate. After the protein separated on the gel was transferred to a nitrocellulose membrane, the expression level of the EGFR protein was confirmed using an EGFR antibody (Santa Cruz biotechnology, Santacruz, CA, USA). EGFR bands separated by Western blotting were quantitatively analyzed with Fluo-S MultiImager (Bio-Rad, Hercules, CA, USA).

EGFR^L858R+T790M+C797S = target: T1, EGFR^L858R+T790M+C797S (Homo sapiens, UniProt P00533, C797S/L858R/T790M); test: EGFR protein degradation test (Western blot) in Ba/F3 cells expressing mutant EGFR L858R+T790M+C797S (LTC); type: cell-based; conditions: compounds at 0.1 μM and 1 μM, 24 hours, Western blot with EGFR antibody
T1 construct: expressed in transfected cells; host or cells: Ba/F3
T1 sequence (P00533 25-1210 T790M/C797S/L858R): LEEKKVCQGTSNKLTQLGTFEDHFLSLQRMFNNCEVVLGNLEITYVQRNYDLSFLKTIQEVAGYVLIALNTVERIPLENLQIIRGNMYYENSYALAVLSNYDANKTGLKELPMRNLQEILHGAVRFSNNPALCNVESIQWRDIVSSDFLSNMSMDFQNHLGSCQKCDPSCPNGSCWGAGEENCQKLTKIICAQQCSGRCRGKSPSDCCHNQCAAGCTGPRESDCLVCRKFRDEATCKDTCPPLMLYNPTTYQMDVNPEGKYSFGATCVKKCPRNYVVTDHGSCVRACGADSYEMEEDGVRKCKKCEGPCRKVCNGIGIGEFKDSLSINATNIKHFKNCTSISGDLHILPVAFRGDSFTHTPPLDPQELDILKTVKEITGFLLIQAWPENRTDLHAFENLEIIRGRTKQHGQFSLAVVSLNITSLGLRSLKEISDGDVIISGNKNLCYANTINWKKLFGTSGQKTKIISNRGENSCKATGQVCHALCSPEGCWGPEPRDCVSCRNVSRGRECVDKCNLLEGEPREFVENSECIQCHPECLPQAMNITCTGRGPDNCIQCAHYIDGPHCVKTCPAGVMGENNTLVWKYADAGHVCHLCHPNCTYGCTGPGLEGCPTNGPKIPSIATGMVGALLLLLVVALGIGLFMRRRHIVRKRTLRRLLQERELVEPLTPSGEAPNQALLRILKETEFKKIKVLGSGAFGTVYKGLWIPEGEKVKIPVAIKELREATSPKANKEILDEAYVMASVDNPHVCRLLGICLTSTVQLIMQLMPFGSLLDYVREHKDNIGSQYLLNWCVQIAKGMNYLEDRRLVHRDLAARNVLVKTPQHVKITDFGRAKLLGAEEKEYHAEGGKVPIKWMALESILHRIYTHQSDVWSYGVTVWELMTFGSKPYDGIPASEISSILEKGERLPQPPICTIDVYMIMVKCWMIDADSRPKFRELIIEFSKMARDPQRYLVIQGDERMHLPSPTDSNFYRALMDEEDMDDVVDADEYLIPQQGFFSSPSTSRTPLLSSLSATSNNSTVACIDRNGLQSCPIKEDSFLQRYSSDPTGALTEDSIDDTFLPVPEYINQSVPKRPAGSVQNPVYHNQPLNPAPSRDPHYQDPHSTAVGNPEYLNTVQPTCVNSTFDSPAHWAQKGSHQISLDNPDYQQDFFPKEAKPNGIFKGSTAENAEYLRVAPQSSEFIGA
Experimental: as §1, §2

Row | SMILES | DTC (EGFR^del19+T790M+C797S) protein degradation (EGFR^del19+T790M+C797S) | LTC (EGFR^L858R+T790M+C797S) protein degradation (EGFR^L858R+T790M+C797S)
1 | COc1cc(N2CCN(CC3CCN(CC(=O)Nc4cccc5c4C(=O)N(C4CCC(=O)NC4=O)C5=O)CC3)CC2)ccc1Nc1ncc(Cl)c(Nc2ccccc2N(C)S(C)(=O)=O)n1 (centres unmarked) [Compound 25, 2-(4-((4-(4-((5-chloro-4-((2-(N-methylmethylsulfonamido)phenyl)amino)pyrimidin-2-yl)amino)-3-methoxyphenyl)piperazin-1-yl)methyl)piperidin-1-yl)-N-(2-(2,6-dioxopiperidin-3-yl)-1,3-dioxoisoindolin-4-yl)acetamide] | − (Protein degradation < 20%) | − (Protein degradation < 20%)
2 | COc1cc(N2CCC(CN3CCC(C(=O)N[C@H](C(=O)N4C[C@H](O)C[C@H]4C(=O)NCc4ccc(-c5scnc5C)cc4)C(C)(C)C)CC3)CC2)ccc1Nc1ncc(Cl)c(Nc2ccccc2N(C)S(C)(=O)=O)n1 [Compound 29, 1-((1-(4-((5-chloro-4-((2-(N-methylmethylsulfonamido)phenyl)amino)pyrimidin-2-yl)amino)-3-methoxyphenyl)piperidin-4-yl)methyl)-N—((S)-1-((2S,4R)-4-hydroxy-2-((4-(4-methylthiazol-5-yl)benzyl)carbamoyl)pyrrolidin-1-yl)-3,3-dimethyl-1-oxobutan-2-yl)piperidin-4-carboxamide] | − (Protein degradation < 20%) | − (Protein degradation < 20%)
3 | COc1cc(N2CCC3(CCN(CCC(=O)Nc4cccc5c4C(=O)N(C4CCC(=O)NC4=O)C5=O)CC3)CC2)ccc1Nc1ncc(Cl)c(Nc2ccccc2N(C)S(C)(=O)=O)n1 (centres unmarked) [Compound 30, 3-(9-(4-((5-chloro-4-((2-(N-methylmethylsulfonamido)phenyl)amino)pyrimidin-2-yl)amino)-3-methoxyphenyl)-3,9-diazaspiro[5,5]undecan-3-yl)-N-(2-(2,6-dioxopiperidin-3-yl)-1,3-dioxoisoindolin-4-yl)propanamide] | − (Protein degradation < 20%) | − (Protein degradation < 20%)
4 | COc1cc(N2CC3(CN(CCC(=O)Nc4cccc5c4C(=O)N(C4CCC(=O)NC4=O)C5=O)C3)C2)ccc1Nc1ncc(Cl)c(Nc2ccccc2N(C)S(C)(=O)=O)n1 (centres unmarked) [Compound 32, 3-(6-(4-((5-chloro-4-((2-(N-methylmethylsulfonamido)phenyl)amino)pyrimidin-2-yl)amino)-3-methoxyphenyl)-2,6-diazaspiro[3,3]heptan-2-yl)-N-(2-(2,6-dioxopiperidin-3-yl)-1,3-dioxoisoindolin-4-yl)propanamide] | − (Protein degradation < 20%) | − (Protein degradation < 20%)
5 | COc1cc(N2CCN(CCOC3CN(c4ccc5c(c4)C(=O)N(C4CCC(=O)NC4=O)C5=O)C3)CC2)ccc1Nc1ncc(Cl)c(Nc2ccccc2N(C)S(C)(=O)=O)n1 (centres unmarked) [Compound 33, N-(2-((5-chloro-2-((4-(4-(2-((1-(2-(2,6-dioxopiperidin-3-yl)-1,3-dioxoisoindolin-5-yl)azetidin-3-yl)oxy)ethyl)piperazin-1-yl)-2-methoxyphenyl)amino)pyrimidin-4-yl)amino)phenyl)-N-methylmethanesulfonamide] | + (Protein degradation 20~80%) | − (Protein degradation < 20%)
6 | COc1cc(N2CCN(CCOC3CCN(c4ccc5c(c4)C(=O)N(C4CCC(=O)NC4=O)C5=O)CC3)CC2)ccc1Nc1ncc(Cl)c(Nc2ccccc2N(C)S(C)(=O)=O)n1 (centres unmarked) [Compound 34, N-(2-((5-chloro-2-((4-(4-(2-((1-(2-(2,6-dioxopiperidin-3-yl)-1,3-dioxoisoindolin-5-yl)piperidin-4-yl)oxy)ethyl)piperazin-1-yl)-2-methoxyphenyl)amino)pyrimidin-4-yl)amino)phenyl)-N-methylmethanesulfonamide] | − (Protein degradation < 20%) | − (Protein degradation < 20%)
7 | COc1cc(N2CCC(CN3CC(C(=O)N[C@H](C(=O)N4C[C@H](O)C[C@H]4C(=O)NCc4ccc(-c5scnc5C)cc4)C(C)(C)C)C3)CC2)ccc1Nc1ncc(Cl)c(Nc2ccccc2N(C)S(C)(=O)=O)n1 [Compound 38, (2S,4R)-1-((S)-2-(1-((1-(4-((5-chloro-4-((2-(N-methylmethylsulfonamido)phenyl)amino)pyrimidin-2-yl)amino)-3-methoxyphenyl)piperidin-4-yl)methyl)azetidin-3-carboxamido)-3,3-dimethylbutanoyl)-4-hydroxy-N-(4-(4-methylthiazol-5-yl)benzyl)pyrrolidin-2-carboxamide] | − (Protein degradation < 20%) | − (Protein degradation < 20%)
8 | CN(c1ccccc1Nc1nc(Nc2ccc(N3CCN(CCN4CC(Oc5cccc6c5CN(C5CCC(=O)NC5=O)C6=O)C4)CC3)c(F)c2)ncc1Cl)S(C)(=O)=O (centres unmarked) [Compound 39, N-(2-((5-chloro-2-((4-(4-(2-(3-((2-(2,6-dioxopiperidin-3-yl)-1-oxoisoindolin-4-yl)oxy)azetidin-1-yl)ethyl)piperazin-1-yl)-3-fluorophenyl)amino)pyrimidin-4-yl)amino)phenyl)-N-methylmethanesulfonamide] | + (Protein degradation 20~80%) | + (Protein degradation 20~80%)
9 | CN(c1ccccc1Nc1nc(Nc2ccc(N3CCN(CCOC4CN(c5ccc6c(c5)C(=O)N(C5CCC(=O)NC5=O)C6=O)C4)CC3)c(F)c2)ncc1Cl)S(C)(=O)=O (centres unmarked) [Compound 40, N-(2-((5-chloro-2-((4-(4-(2-((1-(2-(2,6-dioxopiperidin-3-yl)-1,3-dioxoisoindolin-5-yl)azetidin-3-yl)oxy)ethyl)piperazin-1-yl)-3-fluorophenyl)amino)pyrimidin-4-yl)amino)phenyl)-N-methylmethanesulfonamide] | + (Protein degradation 20~80%) | + (Protein degradation 20~80%)
10 | COc1cc(N2CCN(CC3CCN(Cc4ccc5c(c4)C(=O)N(C4CCC(=O)NC4=O)C5=O)CC3)CC2)ccc1Nc1ncc(Cl)c(Nc2ccccc2N(C)S(C)(=O)=O)n1 (centres unmarked) [Compound 41, N-(2-((5-chloro-2-((4-(4-((1-((2-(2,6-dioxopiperidin-3-yl)-1,3-dioxoisoindolin-5-yl)methyl)piperidin-4-yl)methyl)piperazin-1-yl)-2-methoxyphenyl)amino)pyrimidin-4-yl)amino)phenyl)-N-methylmethanesulfonamide] | − (Protein degradation < 20%) | − (Protein degradation < 20%)

Reference: patent publication US20230322723A1, “COMPOUNDS FOR SUPPRESSING EGFR MUTANT CANCER AND PHARMACEUTICAL USE THEREOF” (J2H BIOTECH INC., priority 2020, published 2023)
